Experimental data reported in article PMC12525028, “Blood–Brain Barrier Penetration of Novel 4-Trifluoromethyl-Coumarin Hybrids with Antibacterial Properties as Potential Brain Therapeutics in the Context of Spatially Diverse Healthcare Systems” (International Journal of Molecular Sciences, 2025).
Values after ≈ are worked out from the molar mass of the structure shown. “Also recorded” adds a separate entry of the source. Like-named read-outs stand apart in the source and are kept apart here.

Tests used:
[1] = Transfer of coumarins from blood to CSF in sheep (third ventricle CSF, spectrophotometric); settings: for Mean (μg/mL) Value with Centrifugation (average coumarin concentration in CSF) / Value (μg/mL) Without Centrifugation (average coumarin concentration in CSF): iv infusion 50 mg/500 mL over 15 min; for Mean (μg/mL) Value with Centrifugation (average coumarin concentration in CSF): CSF centrifuged; for Value (μg/mL) Without Centrifugation (average coumarin concentration in CSF): CSF not centrifuged; for change in CSF concentration level after centrifugation: paired data before/after centrifugation; for transfer to the CSF (coumarin concentration level higher than 0) / crossing of the BBB/BCSFB (in words) / metabolism after crossing the BBB/BCSFB (in words): sheep; for transfer to the CSF (coumarin concentration level higher than 0): after centrifugation of CSF; for crossing of the BBB/BCSFB (in words): iv administration; for metabolism after crossing the BBB/BCSFB (in words): from regression and absorbance curves
[2] = Mass spectrometric determination of coumarin 2 in sheep CSF (ESI, positive mode); type: in vivo; settings: sheep CSF after administration of compound 2, sodiated ion
Description: All reagents and solvents were purchased from Sigma-Aldrich (Saint Louis, MI, USA). All solvents were of analytical grade and were used without prior distillation. Merck silica gel 60 F254 plates were used for TLC (Thin-Layer Chromatography) analysis. The crude reaction mixtures were purified using column chromatography on Merck silica gel 60/230–400 mesh (Rahway, NJ, USA), with an appropriate mixture of hexanes and ethyl acetate as eluent. Nuclear magnetic resonance (NMR) spectra were performed on a Varian apparatus (Varian, Saint Louis, MI, USA) (400 MHz) and (500 MHz); the mass spectrometer was from Waters Company, Milford, MA, USA. Chemical shifts are expressed in ppm and the coupling constant (J) is expressed in Hz using TMS as an internal standard. […] Cerebrospinal fluid (CSF) samples were analyzed for the presence of the investigated coumarin derivative 2 using a SCIEX API 3000 triple quadrupole mass spectrometer (Science, Engineering, and Technology (SCIEX, Concord, ON, Canada)) equipped with an electrospray ionization (ESI) source operated in positive ion mode.
Sheep CSF samples were collected and stored at −80 °C until further analysis. […] The samples were analyzed using a SCIEX API 3000 triple quadrupole mass spectrometer equipped with an electrospray ionization (ESI) source operating in positive ion mode. […]

[3] = Solubility in water (observation); type: physicochemical
[4] = in vivo; for crossing of the BBB/BCSFB (in words): iv
MTT cytotoxicity assay [5] = settings: mouse; for viability at 24 h, 0.5 µg/mL: cell viability, BALB/c-3T3, 0.5 µg/mL, MTT
Description: (§1) The cytotoxic effects of the tested peptidomimetics 1–8 on BALB/c-3T3 mouse fibroblast cells and gonadotroph cell lines such αT3-1 came from the ATCC collection.
(§2) All cells were cultured in Petri dishes in DMEM in a 5% CO2 incubator. Balb/c3T3 cells required supplementation with 10% fetal bovine serum (PAA Laboratories, cat. no. A15-751), whereas αT3-1 cells were maintained in monolayer cultures in DMEM supplemented with 10% fetal bovine serum, 100 U/ml penicillin G, and 0.1 mg/mL streptomycin (Invitrogen, China) in humidified 5% CO2, 95% air, at 37 °C. The cells were passed at ~95% confluence using a trypsin-EDTA solution (0.05% trypsin, 0.5 mM EDTA). Cells were kept in phenol red-free medium containing charcoal-treated fetal bovine serum for 4 days before the experiments. All cell lines were periodically treated with plasmacin (Invivogen #ant-mpt-1, 10 μg/mL for 2 weeks) and examined for mycoplasma contamination by DAPI staining or PCR as described in [72, 73, 74, 75].
(§3) Both cell lines were determined using the MTT assay after 24 h of incubation at five concentrations. The MTT test is based on the ability of mitochondrial dehydrogenase enzymes to convert an orange, water-soluble tetrazolium salt (3-(4,5-dimethylthiazol-2-yl)-2,5-diphenyltetrazolium bromide) into an insoluble formazan, which is a dark blue product of the above reaction. After the formazan crystals were placed in DMSO or isopropanol, a colored solution formed, and the intensity was measured spectrophotometrically within the wavelength range of 492–570 nm. The amount of colored reduced MTT was proportional to the oxidative activity of the cell mitochondria and, under strictly defined experimental conditions, to the number of metabolically active (living) cells in the population. The MTT test can also be used to determine cell viability in populations of cells that no longer divide, but are metabolically active.

MTT cytotoxicity assay [6] = settings: mouse, αT3-1 pituitary gonadotrope cells; for viability at 24 h, 0.5 µg/mL: cell viability, αT3-1, 0.5 µg/mL, MTT
Description: as §1, §2, §3

in vitro [7] = settings: mouse, cell viability, BALB/c-3T3, 0.5 µg/mL, MTT
Description: as §1, §2, §3

in vitro [8] = settings: mouse, cell viability, αT3-1, 0.5 µg/mL, MTT
Description: as §1, §2, §3

[9] = BALB/c-3T3 mouse embryonic fibroblast cells

COc1ccc(CNC(=O)C(c2ccc(OC)cc2)N(C(=O)CCCC(=O)O)c2ccc3c(C)cc(=O)oc3c2)cc1 (centres unmarked) [Compound 1]
Mean (μg/mL) Value with Centrifugation (average coumarin concentration in CSF) ([1]; sheep CSF): 2 (+/−5) μg/mL
Value (μg/mL) Without Centrifugation (average coumarin concentration in CSF) ([1]; sheep CSF): 10 (+/−5) μg/mL

CCOC(=O)CNC(=O)C(Nc1ccc2c(C(F)(F)F)cc(=O)oc2c1)c1ccccc1 (centres unmarked) [Compound 2]
detection in CSF by ESI-MS [2]: presence of the compound as its sodiated ion
solubility in water (in words) [3]: does not dissolve in water
crossing of the BBB/BCSFB (in words) [4]: penetrated the blood–brain barrier to the greatest extent
protein binding (in words) ([4]; sheep): binds well to proteins
IC50 at 24 h (MTT cytotoxicity assay [5]): 6.58 µg/mL (≈ 14.7 µM)
IC50 at 24 h (MTT cytotoxicity assay [6]): 6.58 µg/mL (≈ 14.7 µM)
Value (μg/mL) Without Centrifugation (average coumarin concentration in CSF) ([1]; sheep CSF): 350 (+/−5) μg/mL
average coumarin concentration in CSF after centrifugation ([1]; sheep CSF, iv infusion, after centrifugation): 118.32 µg/mL
average coumarin concentration in CSF before centrifugation ([1]; sheep CSF, iv infusion, before centrifugation): 355.85 µg/mL
change in CSF concentration level after centrifugation ([1]; sheep CSF): significant decrease
transfer to the CSF (coumarin concentration level higher than 0) [1]: statistically confirmed

COc1ccc(CNC(=O)C(c2ccccc2)N(C(=O)CCCC(=O)O)c2ccc3c(C)cc(=O)oc3c2)cc1 (centres unmarked) [Compound 3]
viability at 24 h, 0.5 µg/mL (MTT cytotoxicity assay [5]; [9]): > 96%
viability at 24 h, 0.5 µg/mL (MTT cytotoxicity assay [6]): > 96%
Value (μg/mL) Without Centrifugation (average coumarin concentration in CSF) ([1]; sheep CSF): 2.5 (+/−5) μg/mL
crossing of the BBB/BCSFB (in words) [1]: crossed the BBB/BCSFB
metabolism after crossing the BBB/BCSFB (in words) [1]: partially metabolized

CCOC(=O)CNC(=O)C(Nc1ccc2c(C(F)(F)F)cc(=O)oc2c1)c1ccc(OC)cc1 (centres unmarked) [Compound 4]
viability at 24 h, 0.5 µg/mL (in vitro [7]): > 96%
viability at 24 h, 0.5 µg/mL (in vitro [8]): > 96%

CCOC(=O)CNC(=O)C(c1ccc(OC)cc1)N(C(=O)Cc1ccccc1)c1ccc2c(C)cc(=O)oc2c1 (centres unmarked) [Compound 5]
viability at 24 h, 0.5 µg/mL (MTT cytotoxicity assay [5]; [9]): > 96%
viability at 24 h, 0.5 µg/mL (MTT cytotoxicity assay [6]): > 96%
Value (μg/mL) Without Centrifugation (average coumarin concentration in CSF) ([1]; sheep CSF): 5 (+/−5) μg/mL
crossing of the BBB/BCSFB (in words) [1]: crossed the BBB/BCSFB
metabolism after crossing the BBB/BCSFB (in words) [1]: partially metabolized

Cc1cc(=O)oc2cc(/N=C/c3ccccc3)ccc12 [Compound 6]
viability at 24 h, 0.5 µg/mL (MTT cytotoxicity assay [5]; [9]): > 96%
viability at 24 h, 0.5 µg/mL (MTT cytotoxicity assay [6]): > 96%
Value (μg/mL) Without Centrifugation (average coumarin concentration in CSF) ([1]; sheep CSF): 8 (+/−5) μg/mL

CCOC(=O)CNC(=O)C(Nc1ccc2c(C(F)(F)F)cc(=O)oc2c1)c1ccc(Br)cc1 (centres unmarked) [Compound 7]
metabolism after crossing the BBB/BCSFB (in words) [4]: partially metabolized
transfer to the CSF (coumarin concentration level higher than 0) [4]: statistically confirmed
crossing of the BBB/BCSFB (in words) [4]: crossed the BBB/BCSFB

COc1ccc(CNC(=O)C(c2ccc(Br)cc2)N(C(=O)Cc2ccccc2)c2ccc3c(C)cc(=O)oc3c2)cc1 (centres unmarked) [Compound 8]
IC50 at 24 h (MTT cytotoxicity assay [5]; [9]): 1.71 µg/mL (≈ 2.73 µM)
IC50 at 24 h (MTT cytotoxicity assay [6]): 1.71 µg/mL (≈ 2.73 µM)
Mean (μg/mL) Value with Centrifugation (average coumarin concentration in CSF) ([1]; sheep CSF): 20 (+/−5) μg/mL
Value (μg/mL) Without Centrifugation (average coumarin concentration in CSF) ([1]; sheep CSF): 30 (+/−5) μg/mL
change in CSF concentration level after centrifugation ([1]; sheep CSF): significant decrease
transfer to the CSF (coumarin concentration level higher than 0) [1]: statistically confirmed
crossing of the BBB/BCSFB (in words) [1]: penetrated the blood–brain barrier to the greatest extent; also recorded: capable of crossing the blood–brain barrier
